# “And” between values parts separate entries of the source, which are not always exact repeats. Equal values may be shown once. Read-outs that look alike come from different tables or passages of the source.
# Tests used:
# [1] = Blood oxytocin concentration in monkey (EIA); format: in vivo, cynomolgus monkey; details: for AUC0-t / Cmax: blood oxytocin
# Experimental: (§1) In order to measure the blood oxytocin concentration, blood was collected from the femoral vein with a syringe (dispensed into an EDTA-2K-containing blood collection tube) before administration and 2, 5, 10, 30, 60, 120, 240 and 480 minutes after administration (9 times in total). In order to measure the cerebrospinal fluid oxytocin concentration, cerebrospinal fluid was collected via a catheter indwelled in the cisterna magna before administration and 10, 30, 60, 120, 240 and 480 minutes after administration (7 times in total). The oxytocin concentration was measured by an EIA method involving an Oxytocin Enzyme Immunoassay Kit: Extraction-Free (Peninsula Laboratories International). This test was performed after being approved by the Animal Experimentation Ethics Committee of SNBL, Ltd.
# in vivo = details: male, cynomolgus monkey, iv
# Experimental: as §1
# [2] = intravenous, individual animals
structure (smiles),measurement,setting,value
"CC[C@H](C)[C@@H]1NC(=O)[C@H](Cc2ccc(O)cc2)NC(=O)[C@@H](N)CSSC[C@@H](C(=O)N2CCC[C@H]2C(=O)N[C@@H](CC(C)C)C(=O)NCC(N)=O)NC(=O)[C@H](CC(N)=O)NC(=O)[C@H](CCC(N)=O)NC1=O [Comparative Example 13, oxytocin]",Blood oxytocin concentration,"[1]; 2 min, oxytocin solution (0.4 mg/mL) intravenous, individual animals",222.00 ng/mL and 246.00 ng/mL and 205.00 ng/mL and 168.00 ng/mL and 202.00 ng/mL and 190.00 ng/mL
same,Blood oxytocin concentration,"[1]; 5 min, intravenous, individual animals",110.00 ng/mL and 101.00 ng/mL and 116.00 ng/mL and 68.00 ng/mL and 68.40 ng/mL and 105.00 ng/mL
same,Blood oxytocin concentration,"[1]; 10 min, intravenous, individual animals",48.40 ng/mL and 64.20 ng/mL and 55.10 ng/mL and 40.40 ng/mL and 50.00 ng/mL and 55.70 ng/mL
same,Blood oxytocin concentration,"[1]; 30 min, intravenous, individual animals",10.50 ng/mL and 15.00 ng/mL and 11.80 ng/mL and 7.10 ng/mL and 9.60 ng/mL and 11.60 ng/mL
same,Blood oxytocin concentration,"[1]; 60 min, intravenous, individual animals",2.80 ng/mL (2×) and 4.50 ng/mL and 2.90 ng/mL and 2.50 ng/mL and 2.60 ng/mL
same,Blood oxytocin concentration,"[1]; 120 min, intravenous, individual animals",0.00 ng/mL (5×) and 1.10 ng/mL
same,Blood oxytocin concentration,"[1]; 240 min, intravenous, average n=6",0.00 ng/mL
same,Blood oxytocin concentration,"[1]; 240 min, intravenous, individual animals",0.00 ng/mL
same,Blood oxytocin concentration,"[1]; 480 min, intravenous, average n=6",0.00 ng/mL
same,Blood oxytocin concentration,"[1]; 480 min, intravenous, individual animals",0.00 ng/mL
same,AUC0-t,[1]; [2],47.345 ng·h/mL and 39.252 ng·h/mL and 28.695 ng·h/mL and 34.345 ng·h/mL and 37.415 ng·h/mL
same,Cmax,[1]; [2],246.00 ng/mL and 205.00 ng/mL and 168.00 ng/mL and 202.00 ng/mL and 190.00 ng/mL
same,AUC0-t,"[1]; male, cynomolgus monkey, blood, iv, intravenous, average n=6, read-out: AUC0-t (converted)",37.5 ng·h/mL
same,Cmax,"[1]; male, cynomolgus monkey, blood, iv, intravenous, average n=6, read-out: Cmax",206 ng/mL
same,AUC0-t,"[1]; male, cynomolgus monkey, blood, iv, intravenous, individual animals, read-out: AUC0-t (converted)",38.1 ng·h/mL
same,Cmax,"[1]; male, cynomolgus monkey, blood, iv, intravenous, individual animals, read-out: Cmax",222 ng/mL
same,level at […],"[1]; male, cynomolgus monkey, blood, 2 min, intravenous, average n=6",206 ng/mL
same,level at […],"[1]; male, cynomolgus monkey, blood, 5 min, intravenous, average n=6",94.7 ng/mL
same,level at […],"[1]; male, cynomolgus monkey, blood, 10 min, intravenous, average n=6",52.3 ng/mL
same,level at 0.5 h,"[1]; male, cynomolgus monkey, blood, 30 min, intravenous, average n=6",10.9 ng/mL
same,level at 1 h,"[1]; male, cynomolgus monkey, blood, 60 min, intravenous, average n=6",3.02 ng/mL
same,level at 2 h,"[1]; male, cynomolgus monkey, blood, 120 min, intravenous, average n=6",0.18 ng/mL
same,level at 0.5 h,in vivo,0.204 ng/mL
same,level at 1 h,in vivo,0.11 ng/mL
same,level at 2 h,in vivo,0.057 ng/mL
same,level at 4 h,in vivo,0.005 ng/mL

# Reference: patent publication US12343472B2, “Powder preparation, cartridge, and device” (Shin Nippon Biomedical Laboratories, Ltd., priority 2018, dated 2025)
